The record followed here is patent US5770574A, “Long-chain alkylamides of amino acids and peptides with anti-proliferative and anti-inflammatory properties” (ASTA Medica Aktiengesellschaft, priority 1994, dated 1998).

One series concerns L1210 mouse leucemia. In words: inhibition of colony formation in soft agar (colony assay), L1210. It counts as cell-based. The conditions noted are these: for Cytotoxicity in vitro EC90 L 1210: concentration giving 90% inhibition of colony formation, determined by graph, 6 days incubation; for activity against L 1210 cells (ranking in words): among the compounds of the table. The protocol:
(§1) The effectiveness of the compounds defined in accordance with the invention was tested as to their in vitro cytotoxicity. The investigations about inhibition of colony formation in soft agar (colony assay) were carried out in conformity with the method of Hamburger and Salmon (A. W. Hamburger, S. E. Salmon, "Primary Bioassay of Human Myeloma Stem Cells", J. Clin. Invest. 60: 846-854 (1977); A. W. Hamburger and S. E. Salmon, "Primary Bioassay of Human Tumor Stem Cells", Science 197: 461-463 (1977)). The tumor cells were incubated in RPMI-1640 medium with 20% fetal calf serum and 0.3% agar in the presence of different concentrations of the test substance at 37° C., 95% relative air humidity and 5% CO2. Triple values were taken in each instance. The incubation time was 6 days for L1210 mouse leucemia and 8 days for KB human mucous-membrane carcinoma. The colonies formed (>50 cells) were subsequently counted.

Series [1] relates to KB human mucous-membrane carcinoma. Kind of series: inhibition of colony formation in soft agar (colony assay), KB. It counts as cell-based. To be noted: for Cytotoxicity in vitro EC90 KB: concentration giving 90% inhibition of colony formation, determined by graph, 8 days incubation; for activity against KB cells (ranking in words): among the compounds of the table. How it is done: as §1

Series [2] deals with ovarian carcinoma OVXF 899. Kind of series: human tumors transplanted into the naked mouse, OVXF 899. The format is in vivo. To be noted: OVXF 899 xenograft, same conditions (45 mg/kg i.p. per day 1.5 and 9). How it is done: (§2) The compound H-LYS(LYS)-NHC18 H37.3HCL (D-21621) was tested separately on human tumors transplanted into the naked mouse. […] This tumor is resistant to all standard cytostatic agents.

In series [3] the test system is small-cell bronchial carcinoma LXFS 538. In words: human tumors transplanted into the naked mouse, LXFS 538. The conditions noted are these: LXFS 538 xenograft, 45 mg/kg i.p. per day 1.5 and 9. It counts as in vivo. The protocol:
as §2

Regarding “H--ORN[(ORN)ORN]--NHC18 H37 4HCl [D-20 990]”, in the series on L1210 mouse leucemia, the “Cytotoxicity in vitro EC90 L 1210” value was more than 10 µg/mL. Besides, the “Cytotoxicity in vitro EC90 KB” value in series [1] turned out to be 1.7 µg/mL.

Turning to `Br.Br.Br.CCCCCCCCCCCCCCCCCCNC(=O)C(N)CCCCNC(=O)C(N)CCCCN` [D-20 994, H--LYS(LYS)--NHC18 H37.3HBr], the “Cytotoxicity in vitro EC90 L 1210” value with L1210 mouse leucemia is 3.2 µg/mL. For the same compound, in series [1], the “activity against KB cells (ranking in words)” value (“activity against KB cells” below) is “highest activity” and the “Cytotoxicity in vitro EC90 KB” value worked out at 0.8 µg/mL.

On to “H--LYS[(LYS)LYS]--NHC18 h37.4HBr [D-20 995]”, for which, in the series on L1210 mouse leucemia, the “Cytotoxicity in vitro EC90 L 1210” value was more than 3 µg/mL. Moreover, in series [1], the “activity against KB cells” value is on record as “highest activity” and the “Cytotoxicity in vitro EC90 KB” value turned out to be 0.9 µg/mL.

As for `CCCCCCCCCCCCCCCCCCNC(=O)C(CCCCN)NC(=O)C(N)CCCCN` [D-22 267, H--LYS--LYS--NHC18 H37], in the series on L1210 mouse leucemia, the “Cytotoxicity in vitro EC90 L 1210” value was determined as 3.1 µg/mL. In series [1], the “activity against KB cells” value is “highest activity” and the “Cytotoxicity in vitro EC90 KB” value was found to be 0.3 µg/mL.

Consider `CCCCCCCCCCCCCCCCCCNC(=O)C(N)CCCCNC(=O)C(N)CCCCN.Cl.Cl.Cl` [D-21 621, H--LYS(LYS)--NHC18 H37.3HCl], for which the tumor inhibition in series [2] is listed as 46 % of the control; in series [3], 37 % of the control. Further, the “Cytotoxicity in vitro EC90 L 1210” value in the series with L1210 mouse leucemia is 2.2 µg/mL. For the same compound, the “Cytotoxicity in vitro EC90 KB” value in series [1] was determined as 1.4 µg/mL.

As for `CCCCCCCCCCCCCCCCCCNC(=O)C(N)CCCNC(=O)C(N)CCCN.Cl.Cl.Cl` [D-20 989, H--ORN(ORN)--NHC18 H37.3HCL], the “Cytotoxicity in vitro EC90 L 1210” value in the series on L1210 mouse leucemia is 3.1 µg/mL. The “Cytotoxicity in vitro EC90 KB” value in series [1] worked out at 1.3 µg/mL.

As to `CCCCCCCCCCCCCCCCNC(=O)C1CSCN1` [D-21 980, H--THZ--NHC16 H33], in the series on L1210 mouse leucemia, the “Cytotoxicity in vitro EC90 L 1210” value was 3.4 µg/mL. Also, the “Cytotoxicity in vitro EC90 KB” value in series [1] was determined as 3.1 µg/mL.

In the case of `CCCCCCCCCCCCCCCCCCNC(=O)[C@H](N)CCCCNC(=O)[C@H](N)CCCCN.Cl.Cl.Cl` [D-22 628, H--D--LYS(D--LYS)--NHC18 H37.3HCL], in the series with L1210 mouse leucemia, the “activity against L 1210 cells (ranking in words)” value is listed as “highest activity” and the “Cytotoxicity in vitro EC90 L 1210” value is 0.8 µg/mL. Besides, the “Cytotoxicity in vitro EC90 KB” value in series [1] came to 1.1 µg/mL.

In the case of `CCCCCCCCCCCCCCNC(=O)C1CSCN1` [D-21 979, H--THZ--NHC14 H29], in the series on L1210 mouse leucemia, the “activity against L 1210 cells (ranking in words)” value is on record as “highest activity” and the “Cytotoxicity in vitro EC90 L 1210” value was 0.3 µg/mL. Moreover, the “Cytotoxicity in vitro EC90 KB” value in series [1] came out at 3.1 µg/mL.
